Reference: patent US20230019491A1, “PYRIMIDINE TBK/IKKe INHIBITOR COMPOUNDS AND USES THEREOF” (Merck Patent GmbH, priority 2017, published 2023)
Where a name gives a salt, the structure may show the parent alone.

How the values were obtained:
TBK1 = target: T1, TBK1 (Homo sapiens, UniProt Q9UHD2); experiment: TBK biochemical assay; settings: 10 point 1:4 dose response, 30 uM top concentration, 90 min at 25° C., LabChip EZ Reader II; read-out: TBK1_IC50
T1 sequence (Q9UHD2 1-729): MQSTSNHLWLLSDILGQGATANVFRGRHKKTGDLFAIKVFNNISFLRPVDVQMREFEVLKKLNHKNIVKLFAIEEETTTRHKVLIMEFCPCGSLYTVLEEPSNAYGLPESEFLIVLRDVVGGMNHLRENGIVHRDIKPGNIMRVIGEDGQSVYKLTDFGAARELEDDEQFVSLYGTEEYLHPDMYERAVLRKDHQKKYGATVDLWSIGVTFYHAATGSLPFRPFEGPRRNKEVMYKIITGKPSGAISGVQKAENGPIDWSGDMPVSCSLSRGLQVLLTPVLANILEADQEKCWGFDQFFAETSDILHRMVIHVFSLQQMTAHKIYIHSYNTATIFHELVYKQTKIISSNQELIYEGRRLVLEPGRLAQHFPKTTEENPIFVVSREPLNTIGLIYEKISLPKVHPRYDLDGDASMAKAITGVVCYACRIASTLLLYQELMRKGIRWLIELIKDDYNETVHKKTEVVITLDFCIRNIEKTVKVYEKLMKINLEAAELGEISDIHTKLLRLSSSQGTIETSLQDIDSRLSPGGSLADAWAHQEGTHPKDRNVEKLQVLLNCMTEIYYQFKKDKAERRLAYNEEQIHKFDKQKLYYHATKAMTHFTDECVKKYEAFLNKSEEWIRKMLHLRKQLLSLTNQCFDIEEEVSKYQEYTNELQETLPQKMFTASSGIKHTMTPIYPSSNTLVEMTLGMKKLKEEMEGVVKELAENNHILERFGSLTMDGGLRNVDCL
Method: (§1) Test compounds were transferred into Labcyte polypropylene 384 well plates (P055-25) and diluted to 3 mM using DMSO. […] 100 uM of a reference compound (1 uM final high concentration). Backfilling was performed if necessary so that all wells contain 1% DMSO final:
(§2) add 75 nl DMSO/well into columns 1, 2 and 24 using Labcyte Echo. add 75 nl 1.0 mM staurosporine/well into column 23 using Labcyte Echo ([…]) add 4.5 ul enzyme/well using multidrop dispenser add 3 ul substrate/well using multidrop dispenser incubate at 25° C. in Heidolph incubator for 90 min. add 7.5 ul 2× stop buffer using multidrop dispenser read on labchip ez reader II using TBK1.job
(§3) Raw data files were opened in the Caliper LabChip Reviewer program (Version 3.0.265.0 SP2) and peak assignments were adjusted to reflect “substrate first” with the software's post-run analysis options. A spline-fit baseline was applied using the software's analysis algorithm.

IKKε = target: T2, IKKε (Homo sapiens, UniProt Q14164); experiment: IKKε biochemical assay; settings: 10 point 1:4 dose response, 30 uM top concentration, 90 min at 25° C., LabChip EZ Reader II; read-out: IKKε_IC50
T2 sequence (Q14164 1-716): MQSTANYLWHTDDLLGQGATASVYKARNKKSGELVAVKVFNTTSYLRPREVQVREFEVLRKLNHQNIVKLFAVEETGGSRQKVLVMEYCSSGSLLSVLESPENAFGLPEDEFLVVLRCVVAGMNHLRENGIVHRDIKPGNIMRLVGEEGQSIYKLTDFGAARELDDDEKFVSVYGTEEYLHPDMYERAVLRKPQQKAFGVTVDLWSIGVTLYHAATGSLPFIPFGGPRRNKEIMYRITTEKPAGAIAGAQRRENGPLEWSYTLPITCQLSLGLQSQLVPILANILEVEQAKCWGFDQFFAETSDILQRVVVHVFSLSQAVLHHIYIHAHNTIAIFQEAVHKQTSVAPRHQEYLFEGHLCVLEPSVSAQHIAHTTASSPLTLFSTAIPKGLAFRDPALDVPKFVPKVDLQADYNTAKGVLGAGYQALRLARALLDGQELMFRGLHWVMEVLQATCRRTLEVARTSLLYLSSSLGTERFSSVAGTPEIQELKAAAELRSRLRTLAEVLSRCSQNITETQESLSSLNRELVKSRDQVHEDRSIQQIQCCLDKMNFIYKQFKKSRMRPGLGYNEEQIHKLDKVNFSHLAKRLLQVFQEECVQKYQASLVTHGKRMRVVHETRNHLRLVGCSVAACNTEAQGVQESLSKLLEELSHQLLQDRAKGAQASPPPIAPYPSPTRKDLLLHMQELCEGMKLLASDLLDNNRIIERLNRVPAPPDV
Method: as §1
as §2, with “C.” for “C. in Heidolph incubator”, “buffer” for “buffer using multidrop dispenser”, “IKKε.” for “TBK1.job”
as §3

Row | SMILES | IC50 (TBK1) [nM] | IC50 (IKKε) [nM]
1 | COc1nc(Nc2nccc(-c3cc(C#N)c(OC4CCN(C(=O)[C@H](C)O)CC4(F)F)cn3)n2)ccc1N1CCN(C2COC2)CC1 (stereo partly drawn) [Example 303, 5-([33-difluoro-1-[(2S)-2-hydroxypropanoyl]piperidin-4-yl]oxy)-2-[2-([6-methoxy-5-[4-(oxetan-3-yl)piperazin-1-yl]pyridin-2-yl]amino)pyrimidin-4-yl]pyridine-4-carbonitrile] | 100 to 1000 | 1000 to 5000
2 | COc1nc(Nc2nccc(-c3ccc(OCC4CN(C(=O)[C@H](C)O)C4)c(C#N)c3)n2)ccc1N1CCN(C2COC2)CC1 [Example 279, 2-([1-[(2S)-2-hydroxypropanoyl]azetidin-3-yl]methoxy)-5-[2-([6-methoxy-5-[4-(oxetan-3-yl)piperazin-1-yl]pyridin-2-yl]amino)pyrimidin-4-yl]benzonitrile] | < 100 | 100 to 1000
3 | COc1nccc(Nc2nccc(-c3ccc(OC4CCN(C(=O)[C@H](C)O)CC4(F)F)c(C#N)c3)n2)n1 (stereo partly shown) [Example 233] | < 100 | < 100
4 | COc1nc(Nc2nccc(-c3ccc(OC4CCN(C(=O)c5n[nH]c(C)n5)CC4)c(C#N)c3)n2)ccc1C(=O)N(C)C [Example 78, 6-([4-[3-cyano-4-([1-[(5-methyl-1H-1,2,4-triazol-3-yl)carbonyl]piperidin-4-yl]oxy)phenyl]pyrimidin-2-yl]amino)-2-methoxy-N,N-dimethylpyridine-3-carboxamide] | < 100 | < 100
5 | COc1nc(Nc2nccc(-c3ccc(N4CC5(CCN(C(=O)[C@@H](O)CO)CC5)C4)c(C#N)c3)n2)ccc1N1CCN(C2COC2)CC1 [Example 315, 2-[7-((S)-2,3-Dihydroxy-propionyl)-2,7-diaza-spiro[3.5]non-2-yl]-5-{2-[6-methoxy-5-(4-oxetan-3-yl-piperazin-1-yl)-pyridin-2-ylamino]-pyrimidin-4-yl}-benzonitrile] | < 100 | < 100
6 | COc1nc(Nc2nccc(-c3ccc(OC4CCN(C(=O)[C@@H](C)O)CC4(F)F)c(C#N)c3)n2)ccc1N1CCN(C)[C@H](C)C1 (stereo partly drawn) [Example 103, 2-[3,3-Difluoro-1-((R)-2-hydroxy-propionyl)-piperidin-4-yloxy]-5-{2-[5-((R)-3,4-dimethyl-piperazin-1-yl)-6-methoxy-pyridin-2-ylamino]-pyrimidin-4-yl}-benzonitrile] | < 100 | < 100
7 | COc1cc(N2CCN(C3COC3)CC2)cnc1Nc1nccc(-c2ccc(OC3CCN(C(=O)[C@H](C)O)CC3(F)F)c(C#N)c2)n1 (stereo partly drawn) [Example 309, 2-([3,3-difluoro-1-[(2S)-2-hydroxypropanoyl]piperidin-4-yl]oxy)-5-[2-([3-methoxy-5-[4-(oxetan-3-yl)piperazin-1-yl]pyridin-2-yl]amino)pyrimidin-4-yl]benzonitrile] | 100 to 1000 | 100 to 1000
8 | CC(O)C(=O)N1CC[C@H](Oc2ccc(-c3nc(Nc4ccc(N5CCN(C6COC6)CC5)cc4)ncc3F)cc2C#N)[C@H](F)C1 (stereo partly drawn) [Example 295, 2-{[(3R,4S)-3-fluoro-1-(2-hydroxypropanoyl)piperidin-4-yl]oxy}-5-[5-fluoro-2-({4-[4-(oxetan-3-yl)piperazin-1-yl]phenyl}amino)pyrimidin-4-yl]benzonitrile] | < 100 | < 100
9 | COc1nc(Nc2nccc(-c3ccc(O[C@H]4CCN(C(=O)[C@H](C)O)C[C@@H]4F)c(C#N)c3)n2)ccc1N1CCN(C2COC2)CC1 [Example 196, 2-[(3S,4S)-3-Fluoro-1-((S)-2-hydroxy-propionyl)-piperidin-4-yloxy]-5-{2-[6-methoxy-5-(4-oxetan-3-yl-piperazin-1-yl)-pyridin-2-ylamino]-pyrimidin-4-yl}-benzonitrile] | < 100 | < 100
10 | COc1cc(Nc2nccc(-c3ccc(OC4CCOCC4)c(C#N)n3)n2)cnc1C(=O)N(C)C [Example 25, 5-([4-[6-cyano-5-(oxan-4-yloxy)pyridin-2-yl]pyrimidin-2-yl]amino)-3-methoxy-N,N-dimethylpyridine-2-carboxamide] | < 100 | < 100
11 | C[C@H](O)C(=O)N1CC[C@H](Oc2ccc(-c3ccnc(Nc4ccc(N5CCN(C6COC6)CC5)cc4)n3)cc2C#N)C(F)(F)C1 [Example 139, 2-[[(4S)-3,3-difluoro-1-[(2S)-2-hydroxypropanoyl]piperidin-4-yl]oxy]-5-[2-([4-[4-(oxetan-3-yl)piperazin-1-yl]phenyl]amino)pyrimidin-4-yl]benzonitrile] | < 100 | < 100
12 | COc1cc(Nc2nccc(-c3ccc(OC4CCOCC4)c(C#N)c3)n2)ncc1C1CCN(C)CC1 [Example 59, 5-(2-[[4-methoxy-5-(1-methylpiperidin-4-yl)pyridin-2-yl]amino]pyrimidin-4-yl)-2-(oxan-4-yloxy)benzonitrile hydrochloride] | 100 to 1000 | < 100
13 | COc1nc(Nc2ncc(C)c(-c3ccc(O[C@H]4CCN(C(=O)[C@H](C)O)CC4(F)F)c(C#N)c3)n2)ccc1N1CCN(C2COC2)CC1 [Example 284, 2-[[(4S)-3,3-difluoro-1-[(2S)-2-hydroxypropanoyl]piperidin-4-yl]oxy]-5-[2-([6-methoxy-5-[4-(oxetan-3-yl)piperazin-1-yl]pyridin-2-yl]amino)-5-methylpyrimidin-4-yl]benzonitrile] | < 100 | < 100
14 | COc1nc(Nc2nccc(-c3ccc(OC4(C)CCNCC4)c(C#N)c3)n2)ccc1N1CCN(C2COC2)CC1 [Example 267, 5-{2-[6-Methoxy-5-(4-oxetan-3-yl-piperazin-1-yl)-pyridin-2-ylamino]-pyrimidin-4-yl}-2-(4-methyl-piperidin-4-yloxy)-benzonitrile] | < 100 | < 100
15 | COc1nc(Nc2nccc(-c3ccc(OC4CCOCC4)c(C#N)c3)n2)ccc1C1CCN(C)CC1F (stereo not shown) [Example 43, 5-(2-[[5-(3-fluoro-1-methylpiperidin-4-yl)-6-methoxypyridin-2-yl]amino]pyrimidin-4-yl)-2-(oxan-4-yloxy)benzonitrile] | < 100 | < 100
16 | COc1nc(Nc2nccc(-c3ccc(OC4CCNCC4)c(C#N)c3)n2)ccc1N1CCN(C2COC2)CC1 [Example 185, 5-[2-({6-methoxy-5-[4-(oxetan-3-yl)piperazin-1-yl]pyridin-2-yl}amino)pyrimidin-4-yl]-2-(piperidin-4-yloxy)benzonitrile] | < 100 | < 100
17 | C[C@H](O)C(=O)N1CCC(Oc2ccc(-c3ccnc(Nc4ccccn4)n3)cc2C#N)C(F)(F)C1 (stereo partly drawn) [Example 219, 2-(3,3-difluoro-1-((S)-2-hydroxypropanoyl)piperidin-4-yloxy)-5-(2-(pyridin-2-ylamino)pyrimidin-4-yl)benzonitrile] | < 100 | < 100
